Assay results taken from the supplement of paper PMC10307832.

How the values were obtained:
Test in all cases: relative viability (nuclei count vs DMSO), 5 days (fraction); higher = more cells survive
Ricolinostat + Alpelisib = compound: O=C(CCCCCCNC(=O)c1cnc(N(c2ccccc2)c2ccccc2)nc1)NO [Ricolinostat] + Cc1nc(NC(=O)N2CCC[C@H]2C(N)=O)sc1-c1ccnc(C(C)(C)C(F)(F)F)c1 [Alpelisib] (partner 2 µM)
Outline: (§1)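 Five library-drug doses in √10 steps were combined with a fixed anchor-drug dose, or a single drug was given alone, by pin tool to lung cancer cell lines in 1536-well plates the day after seeding. Nuclei were stained and counted after 5 days. Relative viability is the nuclei count in treated wells over that in vehicle wells, taken as the median of duplicate plates.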

[1] = compound: O=C(CCCCCCNC(=O)c1cnc(N(c2ccccc2)c2ccccc2)nc1)NO [Ricolinostat] + Cc1cc(Nc2cc(N3CCN(C)CC3)nc(Sc3ccc(NC(=O)C4CC4)cc3)n2)n[nH]1 [Tozasertib] (partner 0.1 µM)
Outline: as §1

[2] = compound: C1=CC=C(C(=C1)C2=CC=C(C=C2)C3=CSC4=C3C(=C(C(=O)N4)C#N)O)O + CC1(C)CCC(c2ccc(Cl)cc2)=C(CN2CCN(c3ccc(C(=O)NS(=O)(=O)c4ccc(N[C@H](CCN5CCOCC5)CSc5ccccc5)c(S(=O)(=O)C(F)(F)F)c4)cc3)CC2)C1 [Navitoclax] (partner 0.5 µM)
Outline: as §1

[3] = compound: O=C(CCCCCCNC(=O)c1cnc(N(c2ccccc2)c2ccccc2)nc1)NO [Ricolinostat] + CC1(C)CCC(c2ccc(Cl)cc2)=C(CN2CCN(c3ccc(C(=O)NS(=O)(=O)c4ccc(N[C@H](CCN5CCOCC5)CSc5ccccc5)c(S(=O)(=O)C(F)(F)F)c4)cc3)CC2)C1 [Navitoclax] (partner 0.5 µM)
Outline: as §1

Cell Line | relative viability (Ricolinostat + Alpelisib; first compound 0.08 µM) | relative viability (Ricolinostat + Alpelisib; first compound 0.253 µM) | relative viability (Ricolinostat + Alpelisib; first compound 0.8 µM) | relative viability (Ricolinostat + Alpelisib; first compound 2.53 µM) | relative viability ([1]; first compound 0.08 µM) | relative viability ([1]; first compound 0.253 µM) | relative viability ([1]; first compound 0.8 µM) | relative viability ([1]; first compound 2.53 µM) | relative viability ([2]; first compound 0.08 µM) | relative viability ([2]; first compound 0.253 µM) | relative viability ([2]; first compound 0.8 µM) | relative viability ([2]; first compound 2.53 µM) | relative viability ([2]; first compound 8 µM) | relative viability ([3]; first compound 0.08 µM) | relative viability ([3]; first compound 0.253 µM) | relative viability ([3]; first compound 0.8 µM) | relative viability ([3]; first compound 2.53 µM)
201T | 0.905 | 0.946 | 1.03 | 0.887 | 0.909 | 0.932 | 0.829 | 0.612 | 1.25 | 1.18 | 1.19 | 1.18 | 1.26 | 1.21 | 1.16 | 1.23 | 1.24
A549 | 0.537 | 0.805 | 0.663 | 0.631 |  |  |  |  | 1.37 | 1.44 | 1.28 | 1.28 | 1.04 | 1.07 | 1.18 | 1.1 | 1.21
A-427 | 0.927 | 1.07 | 1.09 | 0.983 |  | 0.198 | 0.182 | 0.174 | 0.999 | 0.951 | 1.01 | 0.957 | 1.02 | 0.861 | 0.906 | 0.89 | 0.754
ABC-1 | 0.955 | 0.933 | 1.11 | 0.648 | 0.215 | 0.203 | 0.229 | 0.18 |  |  |  |  |  |  |  |  | 
BEN | 0.951 | 0.901 | 0.978 | 0.655 | 0.539 | 0.558 | 0.534 | 0.517 | 0.0583 | 0.07 | 0.0922 | 0.0562 | 0.063 | 0.0553 | 0.084 | 0.0569 | 0.0652
CAL-12T | 1.1 | 0.998 | 1.15 | 0.912 | 0.326 | 0.261 | 0.284 | 0.196 |  | 1.23 | 1.22 | 1.45 | 1.06 | 1.04 | 1.01 | 1.01 | 1.11
COR-L23 | 0.651 | 0.689 | 0.571 | 0.407 | 0.207 | 0.193 | 0.162 | 0.121 | 1.09 | 0.983 | 1.21 | 1.06 | 0.762 | 0.943 | 1.07 | 0.978 | 0.511
COR-L 105 | 0.698 | 0.98 | 0.934 | 1.25 |  | 0.325 | 0.3 | 0.352 | 0.951 | 0.776 | 0.829 | 0.704 | 0.784 | 0.688 | 0.833 | 0.828 | 0.722
Calu-6 | 0.91 | 0.947 | 1.01 | 0.878 |  |  |  |  | 0.831 | 0.981 | 1.03 | 0.843 | 0.785 | 0.801 | 0.852 | 0.803 | 0.783
ChaGo-K-1 |  |  |  |  | 0.201 | 0.234 | 0.224 | 0.226 | 0.642 | 0.833 | 0.909 | 1 | 1.37 | 1.11 | 1.11 | 0.888 | 0.953
EBC-1 | 0.57 | 0.737 | 0.699 | 0.414 |  |  |  |  | 0.353 | 0.371 | 0.425 | 0.37 | 0.348 | 0.375 | 0.358 | 0.304 | 0.172
EKVX |  | 0.883 | 0.882 | 0.942 | 0.354 | 0.373 |  | 0.384 | 0.897 | 1.13 | 1.03 | 0.922 | 0.903 |  | 0.805 | 0.842 | 1.02
EMC-BAC-2 | 0.644 | 0.669 | 0.768 | 0.816 | 0.318 | 0.234 | 0.204 | 0.206 | 0.963 | 1.28 | 1.2 | 1.46 | 0.774 | 1.04 | 1.09 | 1.2 | 1.2
EPLC-272H |  | 0.891 | 1.04 | 0.7 | 0.354 | 0.192 | 0.333 | 0.317 |  | 1.11 | 1.17 | 1.12 | 0.744 |  | 0.784 | 0.992 | 0.631
H3255 | 0.517 | 0.651 | 0.678 | 0.661 | 0.566 | 0.623 | 0.61 | 0.558 | 0.534 | 0.431 | 0.53 | 0.602 | 0.444 | 0.537 | 0.495 | 0.483 | 0.483
HARA | 0.545 | 0.79 | 0.693 | 0.618 | 0.106 | 0.16 | 0.076 | 0.0848 |  | 1.41 | 1.19 | 1.15 | 1.02 | 1.1 | 1.1 | 1.09 | 1.11
HCC-15 | 0.753 | 0.875 | 0.834 | 0.894 | 0.349 | 0.35 | 0.233 | 0.233 | 0.663 | 0.809 | 0.763 | 0.858 | 0.644 | 0.649 | 0.75 | 0.767 | 0.616
HCC-44 | 0.694 | 0.743 | 0.725 | 0.612 | 1.01 | 0.984 | 0.862 | 0.537 | 0.909 | 1.09 | 1 | 0.938 | 0.65 | 0.861 | 1.04 | 0.985 | 0.93
HCC-78 |  | 0.32 | 0.291 | 0.192 |  | 0.33 | 0.347 | 0.27 | 0.826 | 1.02 | 0.754 | 0.943 | 0.708 |  | 0.771 | 0.561 | 0.435
HCC-366 | 0.223 | 0.407 | 0.398 | 0.433 | 0.241 | 0.0847 | 0.0896 | 0.0599 | 0.959 | 1.18 | 1.05 | 1.11 | 0.501 | 0.831 | 0.957 | 1.06 | 0.978
HCC-827 | 0.615 | 0.938 | 0.935 | 0.985 | 0.354 | 0.413 | 0.409 | 0.379 | 1 | 1.12 | 1.04 | 1.04 | 1.04 | 0.95 | 1.02 | 1.01 | 0.909
